Converted amounts (≈) assume the structure as drawn. Where two headings read alike, the source gives them in different places.
Legend:
[1] = Equilibrium solubility in vehicle; assay type: physicochemical; conditions: aqueous buffer, thermodynamic from solid, 20 mM sodium phosphate dibasic with 125 mM sodium chloride; for solubility thermodynamic at 23 h: T0 hours, read-out: Equilibrium solubility, T0 hours Concentration; for solubility thermodynamic at 24 h: T24 hours, read-out: Equilibrium solubility, T24 hours Concentration; for solubility thermodynamic at 72 h: T72 hours, read-out: Equilibrium solubility, T72 hours Concentration
Procedure: (§1) Each prodrug was dissolved in a vehicle containing 20 mM sodium phosphate dibasic with 125 mM sodium chloride. Prodrugs were prepared at saturation concentrations by weighing 15-30 mg of prodrug in to a 4 mL clear glass vial and dissolving in an appropriate volume of vehicle (0.5-1.0 mL) to achieve a nominal saturation concentration of 30 mg/mL. The solutions were mixed for 23 hours on a rotating mixer. […] The resultant supernatant solutions were isolated from undissolved prodrug by centrifugation at 15000 RPM for 15 min. Supernatants were transferred to clear glass vials and stored at ambient temperature. […] The resultant samples were assayed against treprostinil to determine prodrug concentration. At each testing interval (0, 24, 72 hours) the supernatant was assayed for prodrug concentration and purity by area %.

[2] = Solution stability in vehicle (UPLC area %); assay type: physicochemical; conditions: for Solution stability, T0 Purity: ambient
Procedure: as §1

[3] = Stability in 200 mM potassium phosphate buffer (pH 7.4); assay type: physicochemical; conditions: 1 μM
Procedure: According to the earlier aqueous solution stability study, all prodrugs are stable in 20 mM Sodium Phosphate dibasic with 125 mM NaCl at saturation concentrations (3-30 mg/ml). Also, in the method development work, it was also observed that the most unstable prodrugs III, IV and XIV were stable in 200 mM potassium phosphate buffer (pH 7.4) at a low concentration of 1 μM.

[4] = In vitro metabolic stability of prodrugs in liver microsomes, across all species; assay type: in vitro ADME, human, Beagle dog, Sprague Dawley rat, Cynomolgus monkey
Procedure: In the second assay, four prodrugs (III, IV, VII and XIV) were tested in Cyno monkey liver microsomes.

[5] = molecular target: T1, EP2 receptor (Homo sapiens, UniProt P43116); assay: cAMP assay (TR-FRET or HTRF kit, forskolin), Examples 5 and 6; assay type: cell-based; conditions: read-out: EC50, EP receptor
T1 construct: expressed in transfected cells
T1 sequence (P43116 whole entry): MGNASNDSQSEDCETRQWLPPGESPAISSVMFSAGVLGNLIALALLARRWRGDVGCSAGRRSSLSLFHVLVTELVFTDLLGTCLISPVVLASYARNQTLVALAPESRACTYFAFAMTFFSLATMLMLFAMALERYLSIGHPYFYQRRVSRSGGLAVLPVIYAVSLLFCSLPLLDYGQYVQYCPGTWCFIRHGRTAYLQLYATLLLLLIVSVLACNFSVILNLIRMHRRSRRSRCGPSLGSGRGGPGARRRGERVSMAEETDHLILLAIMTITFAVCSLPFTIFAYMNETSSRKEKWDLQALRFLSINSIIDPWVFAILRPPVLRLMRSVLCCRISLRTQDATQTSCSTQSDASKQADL
Procedure: (§2) [table] Prodrug XV (for structure see FIG. 10) as well as treprostinil were tested for 3 G-protein-coupled receptors (GPCRs), namely DP1, EP2, and IP, using cyclic adenosine monophosphate (cAMP) assay. Cyclic AMP assay kits: Multiscreen™ TR-FRET cAMP 1.0 No Wash Assay Kit (Multispan, Inc., Cat #MSCM01-25) and HTRF cAMP HiRange Kit (CisBio, Cat #62AM6PEC). Instruments: FlexStation III (Molecular Devices). Cyclic AMP (cAMP) Assay: cAMP assays were performed according to the manufacturer's protocol using Multiscreen™ TR-FRET cAMP 1.0 No Wash Assay Kit or HTRF cAMP HiRange Kit. […] The reaction was terminated by sequentially adding sequentially adding trFluor™ Eu-labeled cAMP and trFluor™ 650-labeled anti-cAMP antibody or D2-labeled cAMP and cryptate-labeled anti-cAMP antibody in lysis buffer. The plate was then incubated at room temperature for 60 minutes before reading fluorescent emissions at 620 nm and 665 or 668 nm with excitation at 314 nm on FlexStation III (Molecular Devices). Cyclic AMP (cAMP) assays: Cyclic AMP assay results are shown as “Ratio 665/620×10,000” (ratio of fluorescence at 665 nm and 620 nm×10,000) or “Ratio 668/620×10,000” (ratio of fluorescence at 668 nm and 620 nm×10,000). Data in graphs were represented in Mean±SD. Dose-dependent responses were fitted with sigmoidal dose-response curves allowing variable slopes using GraphPad Prism versions 4, 5 or 6 (Graphpad Prism). Treprostinil Prodrug XIV (for structure see FIG. 10) as well as treprostinil were tested for 3 G-protein-coupled receptors (GPCRs), namely DP1, EP2, and IP, using cyclin adenosine monophosphate (cAMP) assay. Cyclic AMP assay kits: Multiscreen™ TR-FRET cAMP 1.0 No Wash Assay Kit (Multispan, Inc., Cat #MSCM01-25) and HTRF cAMP HiRange Kit (CisBio, Cat #62AM6PEC). Cyclic AMP (cAMP) Assay: cAMP assays were performed according to the manufacturer's protocol using Multiscreen™ TR-FRET cAMP 1.0 No Wash Assay Kit or HTRF cAMP HiRange Kit. […] The reaction was terminated by sequentially adding sequentially adding trFluor™ Eu-labeled cAMP and trFluor™ 650-labeled anti-cAMP antibody or D2-labeled cAMP and cryptate-labeled anti-cAMP antibody in lysis buffer. The plate was then incubated at room temperature for 60 minutes before reading fluorescent emissions at 620 nm and 665 or 668 nm with excitation at 314 nm on FlexStation III (Molecular Devices). Cyclic AMP (cAMP) assays: Cyclic AMP assay results are shown as “Ratio 665/620×10,000” (ratio of fluorescence at 665 nm and 620 nm×10,000) or “Ratio 668/620×10,000” (ratio of fluorescence at 668 nm and 620 nm×10,000). Data in graphs were represented in Mean±SD. Dose-dependent responses were fitted with sigmoidal dose-response curves allowing variable slopes using GraphPad Prism versions 4, 5 or 6 (Graphpad Prism).

[6] = molecular target: T2, IP1 receptor (Homo sapiens, UniProt P43119); assay: as above; assay type: cell-based; conditions: read-out: EC50, IP receptor
T2 construct: expressed in transfected cells
T2 sequence (P43119 whole entry): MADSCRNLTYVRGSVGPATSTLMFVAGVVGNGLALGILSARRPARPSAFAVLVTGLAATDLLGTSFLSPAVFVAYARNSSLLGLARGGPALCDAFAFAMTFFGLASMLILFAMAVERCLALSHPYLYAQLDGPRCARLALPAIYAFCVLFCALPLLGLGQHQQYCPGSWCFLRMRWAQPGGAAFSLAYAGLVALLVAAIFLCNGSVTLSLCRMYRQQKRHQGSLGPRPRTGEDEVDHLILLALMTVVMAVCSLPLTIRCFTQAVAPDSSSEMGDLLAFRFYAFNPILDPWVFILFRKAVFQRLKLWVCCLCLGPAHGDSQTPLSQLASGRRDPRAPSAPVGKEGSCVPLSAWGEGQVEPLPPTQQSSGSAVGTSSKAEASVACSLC
Procedure: as §2

[7] = molecular target: T3, DP1 receptor (Homo sapiens, UniProt Q13258); assay: as above; assay type: cell-based; conditions: read-out: EC50, DP receptor
T3 construct: expressed in transfected cells
T3 sequence (Q13258 1-359): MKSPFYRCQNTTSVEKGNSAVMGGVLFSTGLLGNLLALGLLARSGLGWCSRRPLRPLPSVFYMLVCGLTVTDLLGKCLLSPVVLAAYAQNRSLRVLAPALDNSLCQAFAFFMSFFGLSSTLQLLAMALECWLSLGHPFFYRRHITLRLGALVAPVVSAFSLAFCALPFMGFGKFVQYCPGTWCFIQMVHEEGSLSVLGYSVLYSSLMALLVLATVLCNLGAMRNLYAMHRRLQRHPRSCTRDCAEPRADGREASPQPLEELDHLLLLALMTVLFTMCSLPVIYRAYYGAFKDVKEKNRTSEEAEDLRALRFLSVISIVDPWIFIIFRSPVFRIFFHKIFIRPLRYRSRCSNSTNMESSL
Procedure: as §2

[8] = tested on: Sprague Dawley rats; assay: Rat intraplantar injection model, thermal pain sensitivity (Example 10); assay type: in vivo, Sprague Dawley rat; conditions: 1 μg/mL or 100 μg/mL; 15 minutes post-administration
Procedure: (§3) Male Sprague Dawley rats (n=56) were allocated into 7 groups of 8 animals per group. […] Each group was compared to the phosphate buffer (50-mM phosphate buffer with 50-mM sodium chloride at pH=7.4) treated group, which served as the control (Group 1).
(§4) Animals were administered 0.1 mL of test material by subcutaneous injection into the paw pad (Intraplantar injection) at time zero. Then, the animals were subsequently evaluated for their response to mechanical (von Frey filaments) and thermal stimuli, 15 and 90 minutes post-injection. The von Frey test was conducted prior to the thermal test, which followed immediately within minutes for each animal. In addition, clinical observation scoring of the animal's reaction to injection was conducted.
The sensitivity of animals to a thermal pain stimulus was assessed immediately following the von Frey test. The time until withdrawal of the right-injected leg from a heat source was measured, and the lower (faster) the time of response represents a greater sensitivity to the stimulus. The test was performed 15 and 90 minutes post-test item injection.

[9] = tested on: Sprague Dawley rats; assay: Rat intraplantar injection model, von Frey test (Example 10); assay type: in vivo, Sprague Dawley rat; conditions: 1 μg/mL or 100 μg/mL; 15 and 90 minutes post-injection
Procedure: as §3, §4
Mechanical pain sensitivity was tested using the von Frey test, which measures the withdrawal force threshold of the animals. The lower the force applied represents a greater sensitivity to the stimulus. The von Frey test was performed 15 and 90 minutes post-test item injection.

[10] = 20 mM sodium phosphate dibasic with 125 mM sodium chloride, T0

| solubility thermodynamic at 23 h [1] [mg/mL] | solubility thermodynamic at 24 h [1] [mg/mL] | solubility thermodynamic at 72 h [1] [mg/mL] | Solution stability, T0 Purity [2, 10] [% Area] | Solution stability, T24 hours Purity ([2]; same vehicle) [% Area] | Solution stability, T72 hours Purity ([2]; same vehicle) [% Area] | stability in buffer [3] | relative stability of the prodrugs in liver microsomes [4] | Structure (SMILES) | also measured |
| --- | --- | --- | --- | --- | --- | --- | --- | --- | --- |
| 12.5 (≈ 27.9 mM) | 12.2 (≈ 27.2 mM) | 12.9 (≈ 28.8 mM) | 99.19 | 99.02 | 99.15 | stable | least stable | CCCCC[C@@H](CC[C@@H]1[C@H]2Cc3cccc(OCC(=O)O)c3C[C@H]2C[C@H]1O)OC(=O)OC [Prodrug IV, side chain methyl carbonate of treprostinil] | – |
| – | – | – | – | – | – | – | – | CCCCC[C@H](O)CC[C@@H]1[C@H]2Cc3cccc(OCC(=O)OCC(=O)O)c3C[C@H]2C[C@H]1O [Prodrug XV] | EC50 ([5]; Table 3 (Example 5)): 41.5 nM; EC50 ([6]; Table 3 (Example 5)): 4.28 nM; EC50 ([7]; Table 3 (Example 5)): 6.99 nM; thermal paw withdrawal time vs phosphate buffer treated group [8]: statistically significantly faster paw withdrawal time; von Frey withdrawal force threshold vs phosphate buffer group [9]: reduced withdrawal force threshold |
| 29.5 (≈ 63.1 mM) | 27.5 (≈ 58.8 mM) | 26.6 (≈ 56.9 mM) | 94.20 | 94.25 | 94.56 | stable | least stable | CCCCC[C@H](O)CC[C@@H]1[C@H]2Cc3cccc(OCC(=O)NS(C)(=O)=O)c3C[C@H]2C[C@H]1O [Prodrug XIV, treprostinil methanesulfonamide] | solubility at 23 h ([1]; approximate, read-out: Solubility in the selected vehicle): ~30 mg/mL (≈ 64.2 mM); T0 Residual Treprostinil [2, 10]: 0.08 % Area; treprostinil formation in the vehicle ([2]; formed over 72 hours): 0.15%; T24 Residual Treprostinil ([2]; same vehicle, T24): 0.13 % Area; T72 Residual Treprostinil ([2]; same vehicle, T72): 0.23 % Area; EC50 ([5]; Table 4 (Example 6)): 67 nM; EC50 ([6]; Table 4 (Example 6)): 3.33 nM; EC50 ([7]; Table 4 (Example 6)): 38.8 nM |
